These results are taken from ChEMBL document CHEMBL1147942, “Dual M3 antagonists-PDE4 inhibitors. Part 2: Synthesis and SAR of 3-substituted azetidinyl derivatives” (Bioorg Med Chem Lett, 2007).

The structures appear in SMILES notation. Calls of active or inactive are those of the source. The rule behind the calls is not given here.

The target in series [1] is Muscarinic acetylcholine receptor M3 (Homo sapiens, UniProt P20309). As to the kind of experiment: Displacement of [3H]N-methylscopolamine from human recombinant M3 muscarinic receptor expressed in CHO cell membrane. The class given is cell membranes. (In general: In a radioligand displacement assay an active substance lowers the binding of a labelled ligand.)
Muscarinic acetylcholine receptor M3 (Homo sapiens, UniProt P20309), sequence (P20309 whole entry): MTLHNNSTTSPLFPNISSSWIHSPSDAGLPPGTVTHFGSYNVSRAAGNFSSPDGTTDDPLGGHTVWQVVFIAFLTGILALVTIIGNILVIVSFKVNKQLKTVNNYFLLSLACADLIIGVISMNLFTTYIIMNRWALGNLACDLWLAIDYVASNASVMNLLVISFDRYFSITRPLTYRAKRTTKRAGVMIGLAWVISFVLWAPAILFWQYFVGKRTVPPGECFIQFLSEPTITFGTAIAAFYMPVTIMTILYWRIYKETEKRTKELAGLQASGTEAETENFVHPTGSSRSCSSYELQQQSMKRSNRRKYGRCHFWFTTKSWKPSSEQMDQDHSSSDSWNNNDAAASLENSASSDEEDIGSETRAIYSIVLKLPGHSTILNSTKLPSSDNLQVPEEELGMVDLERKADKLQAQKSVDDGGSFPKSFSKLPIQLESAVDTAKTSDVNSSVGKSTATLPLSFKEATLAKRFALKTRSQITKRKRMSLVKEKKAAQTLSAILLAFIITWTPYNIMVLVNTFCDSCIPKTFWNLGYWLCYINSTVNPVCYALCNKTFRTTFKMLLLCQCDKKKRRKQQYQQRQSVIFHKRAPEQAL
Series [2] has as its target T1, Phosphodiesterase 4 (Homo sapiens, UniProt P27815+Q08499+Q07343+Q08493). The series is described as follows: Inhibition of PDE4 in U937 cells. Format: cell-based. As to conditions: u-937.
Series [3] in a line: Dissociation constant, pKa of the compound. The class given is physicochemical.
For series [4], the target named is T1, Phosphodiesterase 4. The series is described as follows: Inhibition of PDE4 in U937 cells at 10 uM. Format: cell-based. As to conditions: U-937.
The species entered for series [5] is Mus musculus. The series is described as follows: Inhibition of PMN cells in BALB/c mouse at 10 mg/ml, nose-only aerosol for 15 mins. Format: functional, organism-based.
For series [6], the species on record is Mus musculus. As to the kind of experiment: Inhibition of BALF cells in BALB/c mouse at 10 mg/ml, nose-only aerosol for 15 mins. The class given is functional, organism-based.
For series [7], the species on record is Mus musculus. The series is described as follows: Inhibition of mKC cells in BALB/c mouse at 10 mg/ml, nose-only aerosol for 15 mins. The class given is functional, organism-based.
For series [8], the species on record is Cavia porcellus. Conditions: Trachea.
Description: Activity at PDE4 in guinea pig assessed as effect on LTD4-induced trachea contraction
Series [9] has as its target T1, Phosphodiesterase 4. As to the kind of experiment: Inhibition of PDE4 in U937 cells at high-affinity rolipram binding state. Format: cell-based. Conditions: u-937.
Series [10] in a line: Inhibition of fMLP-induced elastase release from human PMN cells. Format: functional, cell-based.
Series [11] deals with Muscarinic acetylcholine receptor M3 (Cavia porcellus, UniProt Q8VH26). As to the kind of experiment: Activity at M3 muscarinic receptor in guinea pig assessed as effect on carbachol-induced trachea contraction.
Muscarinic acetylcholine receptor M3 (Cavia porcellus, UniProt Q8VH26), sequence (Q8VH26 whole entry): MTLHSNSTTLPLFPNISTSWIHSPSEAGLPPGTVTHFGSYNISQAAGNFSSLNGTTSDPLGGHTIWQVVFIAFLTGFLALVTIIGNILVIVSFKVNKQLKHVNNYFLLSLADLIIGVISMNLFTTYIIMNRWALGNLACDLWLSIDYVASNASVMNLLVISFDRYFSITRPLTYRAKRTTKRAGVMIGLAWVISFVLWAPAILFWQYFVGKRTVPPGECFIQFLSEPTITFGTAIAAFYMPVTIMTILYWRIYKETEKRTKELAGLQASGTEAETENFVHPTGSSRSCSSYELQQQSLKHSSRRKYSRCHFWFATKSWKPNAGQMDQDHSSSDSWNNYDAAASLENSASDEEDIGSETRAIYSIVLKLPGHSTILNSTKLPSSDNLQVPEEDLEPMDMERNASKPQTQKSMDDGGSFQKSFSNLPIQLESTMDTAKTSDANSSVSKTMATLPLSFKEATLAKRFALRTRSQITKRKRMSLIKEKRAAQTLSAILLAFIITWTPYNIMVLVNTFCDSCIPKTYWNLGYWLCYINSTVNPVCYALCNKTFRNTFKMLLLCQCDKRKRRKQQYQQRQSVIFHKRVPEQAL

As to `Cc1c(N2CCCCCC2)nc(C2CC2)nc1N1CC(C)C1`, in series [1], the Ki – broadly, the equilibrium dissociation constant of an inhibitor or competing ligand from its target – amounted to 20 nM. For the same molecule, the IC50 (usually the point on the concentration scale where inhibition reaches its midpoint) in [2] was 790 nM. Further, in series [3], the pKa (usually the pH at which an ionisable group is half protonated) was determined as 8.

Consider `Cc1c(N2CCCCCC2)nc(C2CC2)nc1N1CCCC1`, for which, in [1], the Ki was 1.3 nM. The molecule also yielded an IC50 in [2] of 3200 nM.

As for `Cc1c(N2CCCCCC2)nc(C2CC2)nc1N1CCCCC1`, in [1], the Ki is 79 nM. Moreover, the result in series [4] was inactive.

Turning to `FC1CN(c2cc(N3CCCCCC3)nc(C3CC3)n2)C1`, the Ki in [1] is 501 nM. Further, in series [2], the IC50 stood at 200 nM. Besides, the pKa in series [3] was 6.9.

For `Cc1c(N2CCCCCC2)nc(C2CC2)nc1N1CCCCCC1`, the Ki in series [1] was 40 nM. Besides, the outcome in series [4] was inactive.

For `Cc1c(N2CCCCCC2)nc(C2CC2)nc1N1CC(C)(C)C1`, the Ki in series [1] is 32 nM. This molecule also displayed an IC50 in [2] of 5000 nM. Also, the pKa in [3] is 7.

As to `Cc1c(N2CCCCCC2)nc(C2CC2)nc1N1CC(C#N)C1`, the Ki in series [1] worked out at 794 nM. The same molecule returned an IC50 in [2] of 1000 nM. In [3], this molecule had a pKa of 6.4.

For the molecule `Cc1c(N2CCCCCC2)nc(C2CC2)nc1N1CC(=O)C1`, the Ki in series [1] turned out to be 631 nM. The IC50 in series [2] was determined as 500 nM. In series [3], this molecule showed a pKa of 6.4.

On to `COC1CN(c2nc(C3CC3)nc(N3CCCCCC3)c2C)C1`, for which the Ki in series [1] turned out to be 40 nM. Further, the IC50 in series [2] amounted to 4000 nM. The pKa in series [3] was 6.8.

For `c1c(N2CCCCCC2)nc(C2CC2)nc1N1CCC1`, the Ki in series [1] stood at 79 nM. In [2], this molecule returned an IC50 of 790 nM. This molecule displayed a pKa in series [3] of 7.4.

Regarding `Cc1c(NC2CC2)nc(C2CC2)nc1N1CCCCCC1`, the Activity entry in series [5], in [6] and in series [7] was “Dose-dependent effect” each time. Moreover, the pD2 in [8] amounted to 6.1.

`CC1CN(c2cc(N3CCCCCC3)nc(C3CC3)n2)C1`: the Ki in series [1] was 13 nM. Besides, the IC50 in [2] was determined as 2000 nM. Moreover, the pKa in series [3] was found to be 7.5.

For `Cc1c(N2CCCCCC2)nc(C2CC2)nc1N1CC(O)C1`, in series [1], the Ki stood at 158 nM. Also, the IC50 in [2] amounted to 630 nM. The molecule further registered a pKa in series [3] of 7.

As for `Cc1c(N2CCCCCC2)nc(C2CC2)nc1N1CC(F)C1`, the inhibition constant (Ki) in series [1] was determined as 200 nM. Further, the IC50 in series [2] is 79 nM; in [10] it was 380 nM. Besides, the “Log IC50” value in series [2] was -7.3. In addition, in series [9], the “Log Ki” value is -6. In addition, in series [3], the pKa was found to be 6.6. Also, in series [8], the pD2 worked out at 7.4.

Take `Cc1c(N2CCCCCC2)nc(C2CC2)nc1N1CCC1`: the Ki in series [1] was 16 nM. Besides, in [2], the IC50 stood at 320 nM and the “Log IC50” value is -6.6. The Kb in [11] is 1000 nM. Also, the “Log Ki” value in series [9] is reported as -5.3. The molecule further gave a half-inhibitory concentration (IC50) in series [10] of 190 nM. Also, the pKa in series [3] came to 7.1.
